# Assay results published in ChEMBL document CHEMBL4765339, “Design, synthesis, and biological evaluation of 4-substituted-3,4-dihydrobenzo[h]quinoline-2,5,6(1H)-triones as NQO1-directed antitumor agents” (Eur J Med Chem, 2020).
# The source made the active and inactive calls. No cut-off for these calls is given here.
# Assays:
# HepG2 [1] = test: Induction of cell cycle arrest in human HepG2 cells assessed as increase in accumulation at S/G2 phase incubated for 24 hrs by PI staining based flow cytometry analysis; type: functional; settings: dose 0.75-3 µM
# HepG2 [2] = test: Induction of apoptosis in human HepG2 cells assessed as early apoptotic cells at 2.2 uM incubated for 24 hrs by annexinV-FITC and PI staining based flow cytometry analysis (reference value: 2.65 %); type: functional
# HepG2 [3] = test: Induction of apoptosis in human HepG2 cells assessed as viable cells at 2.2 uM incubated for 24 hrs in presence of dicoumarol by annexinV-FITC and PI staining based flow cytometry analysis (reference value: 94.73 %); type: functional; settings: read-out: Activity
# [4] = biological target: NAD(P)H dehydrogenase [quinone] 1 (Homo sapiens) (UniProt P15559); test: Substrate activity at recombinant human C-terminal His-tagged NQO1 (1 to 274 residues) expressed in Escherichia coli assessed as enzyme activity by measuring oxidation of NADPH incubated for 5 mins measured every 5 sec for 1 mins by UV-visible spectrophotometry relative to beta-lapachone
# [5] = biological target: NAD(P)H dehydrogenase [quinone] 1 (Homo sapiens) (UniProt P15559); test: Substrate activity at recombinant human C-terminal His-tagged NQO1 (1 to 274 residues) expressed in Escherichia coli assessed as enzyme activity by measuring oxidation of NADPH incubated for 5 mins measured per micromol of enzyme every 5 sec for 1 mins by UV-visible spectrophotometry
# HepG2 [6] = test: Cytotoxicity against human HepG2 cells assessed as reduction in cell growth incubated for 48 hrs by MTT assay; type: functional
# HepG2 [7] = test: Cytotoxicity against human HepG2 cells assessed as reduction in cell growth pretreated for 1 hr with NQO1 inhibitor, dicoumarol followed by incubation with compound for 48 hrs by MTT assay; type: functional
# A549 [8] = test: Cytotoxicity against human A549 cells assessed as reduction in cell growth pretreated for 1 hr with NQO1 inhibitor, dicoumarol followed by incubation with compound for 48 hrs by MTT assay; type: functional
# HepG2 [9] = test: Cytotoxicity against human HepG2 cells assessed as reduction in cell growth pretreated for 1 hr with ROS scavenger, N-acetyl cysteine followed by incubation with compound for 48 hrs by MTT assay; type: functional
# A549 [10] = test: Cytotoxicity against human A549 cells assessed as reduction in cell growth pretreated for 1 hr with ROS scavenger, N-acetyl cysteine followed by incubation with compound for 48 hrs by MTT assay; type: functional
# HepG2 [11] = test: Induction of cell cycle arrest in human HepG2 cells assessed as accumulation at S/G2 phase at 3 uM incubated for 24 hrs by PI staining based flow cytometry analysis (reference value: 35.2 %); type: functional
# HepG2 [12] = test: Induction of apoptosis in human HepG2 cells incubated for 24 hrs by annexinV-FITC and PI staining based flow cytometry analysis; type: functional, cell-based; settings: dose 1.1-4.4 µM
# HepG2 [13] = test: Induction of apoptosis in human HepG2 cells assessed as viable cells at 1.1 uM incubated for 24 hrs by annexinV-FITC and PI staining based flow cytometry analysis (reference value: 94.73 %); type: functional; settings: read-out: Activity
# HepG2 [14] = test: Induction of apoptosis in human HepG2 cells assessed as late apoptotic cells at 1.1 uM incubated for 24 hrs by annexinV-FITC and PI staining based flow cytometry analysis (reference value: 2.27 %); type: functional
# HepG2 [15] = test: Induction of apoptosis in human HepG2 cells assessed as viable cells at 2.2 uM incubated for 24 hrs by annexinV-FITC and PI staining based flow cytometry analysis (reference value: 94.73 %); type: functional; settings: read-out: Activity
# HepG2 [16] = test: Induction of apoptosis in human HepG2 cells assessed as late apoptotic cells at 2.2 uM incubated for 24 hrs by annexinV-FITC and PI staining based flow cytometry analysis (reference value: 2.27 %); type: functional
# HepG2 [17] = test: Induction of apoptosis in human HepG2 cells assessed as necrotic cells at 2.2 uM incubated for 24 hrs by annexinV-FITC and PI staining based flow cytometry analysis (reference value: 0.35 %); type: functional
# HepG2 [18] = test: Induction of apoptosis in human HepG2 cells assessed as early apoptotic cells at 4.4 uM incubated for 24 hrs by annexinV-FITC and PI staining based flow cytometry analysis (reference value: 2.65 %); type: functional
# HepG2 [19] = test: Induction of apoptosis in human HepG2 cells assessed as late apoptotic cells at 4.4 uM incubated for 24 hrs by annexinV-FITC and PI staining based flow cytometry analysis (reference value: 2.27 %); type: functional
# HepG2 [20] = test: Induction of apoptosis in human HepG2 cells assessed as necrotic cells at 4.4 uM incubated for 24 hrs by annexinV-FITC and PI staining based flow cytometry analysis (reference value: 0.35 %); type: functional
# HepG2 [21] = test: Induction of apoptosis in human HepG2 cells assessed as early apoptotic cells at 2.2 uM incubated for 24 hrs in presence of dicoumarol by annexinV-FITC and PI staining based flow cytometry analysis (reference value: 2.65 %); type: functional
# HepG2 [22] = test: Induction of apoptosis in human HepG2 cells assessed as late apoptotic cells at 2.2 uM incubated for 24 hrs in presence of dicoumarol by annexinV-FITC and PI staining based flow cytometry analysis (reference value: 2.27 %); type: functional
# HepG2 [23] = test: Induction of mitochondrial membrane potential loss in human HepG2 cells at 1.1 uM incubated for 48 hrs by JC-1 staining based flow cytometry analysis (reference value: 2.06 %); type: functional
# HepG2 [24] = test: Induction of mitochondrial membrane potential loss in human HepG2 cells at 2.2 uM incubated for 48 hrs by JC-1 staining based flow cytometry analysis (reference value: 2.06 %); type: functional
# HepG2 [25] = test: Induction of mitochondrial membrane potential loss in human HepG2 cells at 4.4 uM incubated for 48 hrs by JC-1 staining based flow cytometry analysis (reference value: 2.06 %); type: functional
# HepG2 [26] = test: Antitumor activity against human HepG2 cells xenografted in athymic nude mouse assessed as inhibition of tumor growth administered intravenously once every 2 days for 19 days by caliper analysis; type: functional, cell-based; settings: dose 10-20 mg/kg, time 19.0 day
# HepG2 [27] = test: Antitumor activity against human HepG2 cells xenografted in athymic nude mouse assessed as inhibition of tumor growth at 20 mg/kg, iv administered once every 2 days for 19 days by caliper analysis relative to control; type: functional; settings: 456 h, time 19 day
# [28] = Selectivity index, ratio of GI50 for human HepG2 cells pretreated for 1 hr with NQO1 inhibitor, dicoumarol followed by incubation with compound for 48 hrs to GI50 for human HepG2 cells measured after 48 hrs by MTT assay; type: functional
# [29] = Selectivity index, ratio of GI50 for human HepG2 cells pretreated for 1 hr with ROS scavenger, N-acetyl cysteine followed by incubation with compound for 48 hrs to GI50 for human HepG2 cells measured after 48 hrs by MTT assay; type: functional
# [30] = Selectivity index, ratio of GI50 for human A549 cells pretreated for 1 hr with ROS scavenger, N-acetyl cysteine followed by incubation with compound for 48 hrs to GI50 for human A549 cells measured after 48 hrs by MTT assay; type: functional
# [31] = Selectivity index, ratio of GI50 for human L02 cells to GI50 for human HepG2 cells measured after 48 hrs by MTT assay; type: toxicity; settings: L02 cells and HepG2 cells, read-out: RatioGI50
# HepG2 [32] = test: Induction of ROS generation in human HepG2 cells at 5 uM incubated for 5 hrs in presence of dicoumarol by DCFH-DA staining based flow cytometry analysis; type: functional, cell-based
smiles,measurement,setting,value
COc1ccc(C2CC(=O)NC3=C2C(=O)C(=O)c2ccccc23)cc1O (configuration not stated),Activity,HepG2 [1],Dose-dependent effect
same,Activity,HepG2 [2],10.85%
same,viability at 2.2 µM,HepG2 [3],81.6%
same,fold change (FC),[4],> 2
same,Activity,[5],2770 µmol/min
same,GI50,HepG2 [6],2.23 µM
same,GI50,HepG2 [7],4.93 µM
same,GI50,A549 [8],5.3 µM
same,GI50,HepG2 [9],5.65 µM
same,GI50,A549 [10],5.48 µM
same,Activity,HepG2 [11],41.4%
same,Activity,HepG2 [12],Dose-dependent effect
same,viability at 1.1 µM,HepG2 [13],82.4%
same,Activity,HepG2 [14],8.9%
same,viability at 2.2 µM,HepG2 [15],76%
same,Activity,HepG2 [16],12.2%
same,Activity,HepG2 [17],0.93%
same,Activity,HepG2 [18],14.96%
same,Activity,HepG2 [19],17.46%
same,Activity,HepG2 [20],1.07%
same,Activity,HepG2 [21],8.28%
same,Activity,HepG2 [22],9.46%
same,Activity,HepG2 [23],7.42%
same,Activity,HepG2 [24],11.03%
same,Activity,HepG2 [25],18.12%
same,TGI,HepG2 [26],Dose-dependent effect
same,inhibition in vivo at 20 mg/kg,HepG2 [27],50.3%
same,RatioGI50,[28],2
same,RatioGI50,[29],2
same,RatioGI50,[30],2
same,selectivity ratio at 48 h,[31],2
same,Activity,HepG2 [32],inactive
